Measured values taken from ChEMBL document CHEMBL1201862, “PubChem BioAssay data set” (2004).
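Cultured in 96-well plates, cells were exposed to test compound for 48 hours across five concentrations. GI50 is the concentration that inhibits growth by half.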 The source made the active and inactive calls. Cut-off read from the data, not from the text of the source: active = GI50 up to about 1.1 µM and inactive = higher.

Columns and labels:
Test in all cases: NCI anticancer screen, dose series, 48 h
[1] = tested on: 786-0
[2] = tested on: A498
[3] = tested on: A549
[4] = tested on: ACHN
[5] = tested on: BT-549
[6] = tested on: DU-145
[7] = tested on: EKVX
[8] = tested on: HCC 2998
[9] = tested on: HCT-116
[10] = tested on: HCT-15
[11] = tested on: HL-60
[12] = tested on: HOP-62
[13] = tested on: HT-29
[14] = tested on: Hs-578T
[15] = tested on: IGROV-1
[16] = tested on: K562
[17] = tested on: KM12
[18] = tested on: LOX IMVI
[19] = tested on: M14
[20] = tested on: MCF7
[21] = tested on: MDA-MB-231
[22] = tested on: MDA-MB-435
[23] = tested on: MDA-N
[24] = tested on: MOLT-4
[25] = tested on: Malme-3M
[26] = tested on: NCI-H226
[27] = tested on: NCI-H460
[28] = tested on: NCI-H522
[29] = tested on: NCI/ADR-RES
[30] = tested on: OVCAR-3
[31] = tested on: OVCAR-4
[32] = tested on: OVCAR-5
[33] = tested on: OVCAR-8
[34] = tested on: PC-3
[35] = tested on: RPMI-8226
[36] = tested on: SF-268
[37] = tested on: SF-295
[38] = tested on: SF-539
[39] = tested on: SK-MEL-28
[40] = tested on: SK-MEL-2
[41] = tested on: SK-OV-3
[42] = tested on: SN12C
[43] = tested on: SNB-19
[44] = tested on: SNB-75
[45] = tested on: SR
[46] = tested on: SW-620
[47] = tested on: TK-10
[48] = tested on: U-251
[49] = tested on: UACC-257
[50] = tested on: UACC-62
[51] = tested on: UO-31
[52] = tested on: CAKI-1
[53] = tested on: CCRF-CEM
[54] = tested on: COLO 205
[55] = tested on: NCI-H23
[56] = tested on: RXF 393
[57] = tested on: SK-MEL-5

SMILES: Clc1cc(Br)c2c3c(c(Br)cc(Cl)c13)C(Br)=C2Br
- GI50 [1]: 22.1 µM (inactive)
- GI50 [2]: > 100 µM (inactive)
- GI50 [3]: 55.8 µM (inactive)
- GI50 [4]: 19.7 µM (inactive)
- GI50 [5]: 38.7 µM (inactive)
- GI50 [6]: 28.4 µM (inactive)
- GI50 [7]: 28.6 µM (inactive)
- GI50 [8]: 18.3 µM (inactive)
- GI50 [9]: 21.2 µM (inactive)
- GI50 [10]: 18.6 µM
- GI50 [11]: 19.1 µM (inactive)
- GI50 [12]: 64.3 µM (inactive)
- GI50 [13]: 25.2 µM (inactive)
- GI50 [14]: 33.1 µM (inactive)
- GI50 [15]: 16.7 µM (inactive)
- GI50 [16]: 29 µM (inactive)
- GI50 [17]: 45.8 µM (inactive)
- GI50 [18]: 16.9 µM (inactive)
- GI50 [19]: 28.2 µM (inactive)
- GI50 [20]: 34.8 µM (inactive)
- GI50 [21]: 28.1 µM (inactive)
- GI50 [22]: 39.4 µM (inactive)
- GI50 [23]: 42.3 µM (inactive)
- GI50 [24]: 19.8 µM (inactive)
- GI50 [25]: 27.6 µM (inactive)
- GI50 [26]: 39.4 µM (inactive)
- GI50 [27]: 40.7 µM (inactive)
- GI50 [28]: 17.2 µM (inactive)
- GI50 [29]: 22.8 µM (inactive)
- GI50 [30]: 30.3 µM (inactive)
- GI50 [31]: 44.9 µM (inactive)
- GI50 [32]: 44.2 µM (inactive)
- GI50 [33]: 31 µM (inactive)
- GI50 [34]: 26.7 µM (inactive)
- GI50 [35]: 21.6 µM (inactive)
- GI50 [36]: 22.5 µM (inactive)
- GI50 [37]: > 100 µM (inactive)
- GI50 [38]: 19 µM (inactive)
- GI50 [39]: > 100 µM (inactive)
- GI50 [40]: 29.9 µM (inactive)
- GI50 [41]: > 100 µM (inactive)
- GI50 [42]: 19.5 µM (inactive)
- GI50 [43]: > 100 µM (inactive)
- GI50 [44]: 13.8 µM (inactive)
- GI50 [45]: 27.9 µM (inactive)
- GI50 [46]: 34.2 µM (inactive)
- GI50 [47]: 21.8 µM (inactive)
- GI50 [48]: 43.8 µM (inactive)
- GI50 [49]: > 100 µM (inactive)
- GI50 [50]: 23.2 µM (inactive)
- GI50 [51]: 44.6 µM (inactive)

SMILES: CCNc1nc2ccccc2nc1NCC
- GI50 [1]: > 100 µM (inactive)
- GI50 [2]: > 100 µM (inactive)
- GI50 [3]: > 100 µM (inactive)
- GI50 [4]: > 100 µM (inactive)
- GI50 [5]: > 100 µM (inactive)
- GI50 [52]: > 100 µM (inactive)
- GI50 [53]: > 100 µM (inactive)
- GI50 [54]: > 100 µM (inactive)
- GI50 [6]: > 100 µM (inactive)
- GI50 [7]: > 100 µM (inactive)
- GI50 [8]: > 100 µM (inactive)
- GI50 [9]: > 100 µM (inactive)
- GI50 [10]: > 100 µM
- GI50 [11]: > 100 µM (inactive)
- GI50 [13]: > 100 µM (inactive)
- GI50 [14]: > 100 µM (inactive)
- GI50 [15]: > 100 µM (inactive)
- GI50 [16]: > 100 µM (inactive)
- GI50 [17]: > 100 µM (inactive)
- GI50 [18]: > 100 µM (inactive)
- GI50 [19]: > 100 µM (inactive)
- GI50 [20]: > 100 µM (inactive)
- GI50 [21]: > 100 µM (inactive)
- GI50 [22]: > 100 µM (inactive)
- GI50 [23]: > 100 µM (inactive)
- GI50 [24]: > 100 µM (inactive)
- GI50 [25]: > 100 µM (inactive)
- GI50 [26]: > 100 µM (inactive)
- GI50 [55]: > 100 µM (inactive)
- GI50 [27]: > 100 µM (inactive)
- GI50 [28]: > 100 µM (inactive)
- GI50 [29]: > 100 µM (inactive)
- GI50 [30]: > 100 µM (inactive)
- GI50 [32]: > 100 µM (inactive)
- GI50 [33]: > 100 µM (inactive)
- GI50 [34]: > 100 µM (inactive)
- GI50 [35]: > 100 µM (inactive)
- GI50 [56]: > 100 µM (inactive)
- GI50 [36]: > 100 µM (inactive)
- GI50 [37]: > 100 µM (inactive)
- GI50 [38]: > 100 µM (inactive)
- GI50 [39]: > 100 µM (inactive)
- GI50 [40]: > 100 µM (inactive)
- GI50 [57]: > 100 µM (inactive)
- GI50 [41]: > 100 µM (inactive)
- GI50 [42]: > 100 µM (inactive)
- GI50 [43]: > 100 µM (inactive)
- GI50 [44]: > 100 µM (inactive)
- GI50 [45]: > 100 µM (inactive)
- GI50 [46]: > 100 µM (inactive)
- GI50 [47]: > 100 µM (inactive)
- GI50 [48]: > 100 µM (inactive)
- GI50 [49]: > 100 µM (inactive)
- GI50 [50]: > 100 µM (inactive)
- GI50 [51]: > 100 µM (inactive)
